System: Na^+/K^+/Cl^− cotransporter
Assay: 86Rb uptake assay for Na+/K+/Cl− cotransporter activity in A7r5 cells
Assay type: cell-based, Rat
Conditions: for effect on 86Rb uptake (activation of Na+/K+/Cl− cotransporter): 0.01 μM to 10 μM; for % control activity: 86Rb uptake, 10 min at 37° C.
Protocol: The effect of Compound 1 ((−)-7-[(2R,4aR,5R,7aR)-2-(1,1-difluoropentyl)-2-hydroxy-6-oxooctahydrocyclopenta[b]pyran-5-yl]heptanoic acid) and Compound 2 ((−)-7-{(2R,4aR,5R,7aR)-2-[(3S)-1,1-difluoro-3-methylpentyl]-2-hydroxy-6-oxooctahydrocyclopenta[b]pyran-5-yl}heptanoic acid) on […] cotransporter were assessed by ^86Rb uptake. Rat aorta-derived smooth muscle cells (A7r5) cells were cultured to sub-confluent on culture dishes and used for the assay. The culture medium was removed and replaced by uptake medium that contains labeled isotope (47 μM ^86Rb) and each compound.
After 10 min incubation at 37° C., uptake medium was removed and extracellular radioactivity was washed using 0.1M […] solution. The cells were harvested in 0.1M NaOH and the radioactivity incorporated by the cells was determined. Compound1 and 2 were tested at concentrations ranging from 0.01 μM to 10 μM and each determination was made in duplicate.

CCCCC(F)(F)[C@@]1(O)CC[C@H]2[C@@H](CC(=O)[C@@H]2CCCCCCC(=O)O)O1 [Compound 1, (−)-7-[(2R,4aR,5R,7aR)-2-(1,1-difluoropentyl)-2-hydroxy-6-oxooctahydrocyclopenta[b]pyran-5-yl]heptanoic acid]
effect on 86Rb uptake (activation of Na+/K+/Cl− cotransporter): increased ^86Rb uptake concentration-dependently
% control activity (compound 0.01 μM): 82.7%
% control activity (compound 0.03 μM): 115.7%
% control activity (compound 0.1 μM): 122.6%
% control activity (compound 0.3 μM): 133.2%
% control activity (compound 1 μM): 134.2%
% control activity (compound 3 μM): 152.3%
% control activity (compound 10 μM): 175.5%

CC[C@H](C)CC(F)(F)[C@@]1(O)CC[C@H]2[C@@H](CC(=O)[C@@H]2CCCCCCC(=O)O)O1 [Compound 2, (−)-7-{(2R,4aR,5R,7aR)-2-[(3S)-1,1-difluoro-3-methylpentyl]-2-hydroxy-6-oxooctahydrocyclopenta[b]pyran-5-yl}heptanoic acid]
effect on 86Rb uptake (activation of Na+/K+/Cl− cotransporter): increased ^86Rb uptake concentration-dependently
% control activity (compound 0.01 μM): 108.1%
% control activity (compound 0.03 μM): 143.0%
% control activity (compound 0.1 μM): 157.4%
% control activity (compound 0.3 μM): 171.3%
% control activity (compound 1 μM): 168.5%
% control activity (compound 3 μM): 213.6%
% control activity (compound 10 μM): 205.1%
